Test [1] deals with LXFA 1584 human tumor xenograft cells. Description: Oncotest tumor clonogenic assay, LXFA 1584. Format: cell-based. The note with it: colony formation, NSCLC LXFA 1584, adeno carcinoma, pd, read-out: Absolute IC50.
The subject of test [2] is S6RP(pS240/242). Briefly: Phosphorylated S6RP in U87MG cells. It counts as cell-based. The note with it: Homo sapiens, U-87 MG, n = 3, read-out: S6RP(pS240/242) Absolute IC50. On the procedure:
This homogeneous assay format uses immuno-sandwich capture of the phosphorylated analyte and then detection with antibody-coated Alphascreen beads to generate an amplified signal.
Maintain U87MG cells in U87MG growth medium consisting of DMEM (GIBCO 11965-092) supplemented with 10% fetal bovine serum (FBS, GIBCO, 10091-141), 1% nonessential amino acids (GIBCO, 11140-050) and 1% sodium pyruvate (GIBCO, 11360-070). Harvest cells using standard cell culture procedures and then count using Vi-Cell. Plate 100 μL of U87MG cells in growth medium (50,000 cells/well) into Costar #3596 96 well plates and incubate overnight at 37° C., 5% CO2.
Incubate for one h at 37° C., then remove the medium and add 50 μL of 1× SureFire Lysis Buffer (TGR Biosciences SureFire® Kit component) to each well and incubate at room temperature for 10 min with gentle shaking Transfer 6 μL lysate and 10 μL reaction mixture (60 parts reaction buffer/10 parts activation buffer/1 part each of donor and acceptor beads, Perkin Elmer, 6760617R) to a 384 well proxiplate (Perkin Elmer, 6006280) for the p-p70S6 kinase (Thr389) and p-AKT(Ser473) assays. Seal the plate and incubate at RT for 4 h. […] Read the plates on a Perkin Elmer EnVision equipped with a TurboModule using standard AlphaScreen® settings (Ex680 nm and Em520-620 nm). […]

Test [3] relates to p110α(E545K)/myc leukemic cells. Briefly: E545Kp110a leukemia model. Format: in vivo, mouse. The conditions noted are these: oral gavage, day 5 through day 11, blood on day 12. The text has this:
Leukemia cell line creation: Transduce embryonic liver cells derived from transgenic embryos, B6.Cg-Tg[IghMyc]22Bri/J (Jackson Laboratory, Bar Harbor, Me.), with a retrovirus expressing a clinically-isolated activating mutation of human p110α (E545K as an amino acid change, G1633A on the nucleotide level) under control of the viral 5′ LTR (long terminal repeat) and expressing GFP (green fluorescent protein) under control of the PGK promoter (MSCV6 FLAG-p110α G1633A PGK/GFP) to create target-driven leukemia cells. Transfer the transduced cells into a lethally irradiated host animal. The transduced cells repopulate the hematopoietic stem cells among bone marrow of the recipient and rescue the recipient animal from radiation-induced lethality due to ablation of the recipient's original bone marrow. Observe the rescued primary animals for development of leukemia via weekly monitoring white blood cell counts in a small amount of blood (10 μL) collected retro-orbitally. Collect blood from primary irradiated animals with confirmed leukemia and serially passage to secondary (non-irradiated) host animals in order to establish as a leukemic cell line.
Subject Animals: Use female C57BL/6 mice (Taconic, Cambridge City, Ind.), 8 to 10 week old and 20 to 22 g in weight, as leukemia recipient animals. Acclimate animals on normal low fat diet (4.5%) prior to inoculation and continue on that diet ad libitum for the duration of the study. Identify individual mice from each group by ear punches. Inoculate animals with leukemic cells from donor animals (day 0).
Syngeneic leukemia model: From a donor animal previously inoculated with the leukemic cell line of interest, collect a small amount of blood retro-orbitally (10 μL) and measure the leukemia cell burden by white blood cell count. From animals with sufficient leukemic burden, collect donor blood, dilute with phosphate-buffered saline (PBS) to 500,000 white blood cells per 200 μL and inject 200 μL per animal retro-orbitally on day 0 to initiate leukemia. […]

Test [4] has as its system CXF 243 human tumor xenograft cells. Briefly: Oncotest tumor clonogenic assay, CXF 243. The note with it: colony formation, Colon CXF 243, adeno carcinoma, pd, read-out: Absolute IC50. Format: cell-based.
In test [5] the test system is RXF 631 human tumor xenograft cells. Description: Oncotest tumor clonogenic assay, RXF 631. It counts as cell-based. The note with it: colony formation, Renal RXF 631, hypernephroid adeno carcinoma, wd, read-out: Absolute IC50.
The test system of test [6] is PXF 1752 human tumor xenograft cells. Description: Oncotest tumor clonogenic assay, PXF 1752. It counts as cell-based. The conditions noted are these: colony formation, Pleuramesothelioma PXF 1752, pleuramesothelioma, read-out: Absolute IC50.

As for `CO[C@@H](C)Cn1c(=O)n(C)c2cnc3ccc(-c4cncc(C(C)(C)O)c4)cc3c21` [Example 1, 8-[5-(1-Hydroxy-1-methylethyl)pyridin-3-yl]-1-[(2S)-2-methoxypropyl]-3-methyl-1,3-dihydro-2H-imidazo[4,5-c]quinolin-2-one], the IC50 in test [1] is 85 nM; in test [2], 19.1 nM; in test [4], 237 nM; in test [5], 80 nM; in test [6] it was 32 nM. The “% TGI” value in test [3] (5 mg/kg qd) stood at 50.5%; in test [3] (10 mg/kg qd) it was 76.1%; in test [3] (20 mg/kg qd), 90.1%.
